Structures are written as SMILES. Where a SMILES comes first, the peptide text is derived from it.

One series has as its target T1, cathepsin B (Homo sapiens, UniProt P07858).
T1 construct: purchased Sigma-Aldrich (St. Louis, Mo.)
The series is described as follows: Inhibition of biodegradation of L-PG-NIR813 in presence of CB inhibitor II. Format: biochemical. The conditions noted are these: 0.2 unit/mL cathepsin B, 10 μM eq. NIR813. The method, then: L-PG-NIR813 with different loading 8.3% and 10%, CB and CB inhibitor II were dissolved in assay buffer respectively. The reaction mixture (100 μL) in each well was composed of 10 μM L-PG-NIR813 probe and 0.2 units/mL CB. The CB inhibitor II was serially diluted in the assay buffer to obtain concentrations ranging from 240 μM to 77 nM. The microwell assay plate was incubated at 37° C. for 24 hr. At predetermined time intervals, the inhibition of biodegradation was examined using Li-Cor Odyssey imager.

Series [1] is described as follows: Determination of relaxivity (T1, T2) at 4.7 Tesla. The class given is physicochemical. To be noted: 4.7T MRI experimental scanner. The method, then:
Solutions of PG-Benz-DTPA-Gd-IR783 were prepared in water at gadolinium concentrations of 0.005, 0.01, 0.02, 0.04, 0.08, and 0.16 mM. Spin lattice (T1) and spin-spin (T2) relaxivities were measured at 4.7 Tesla on 4.7T Bruker Biospec 47/40USR […] using inversion recovery and mutiecho T2-weight pulse sequences. Relaxivities (R1 or R2 in mM^−1s^−1) were obtained from linear least square determination of the slopes of 1/T1 vs [Gd] or 1/T2 vs [Gd] plots.
Solutions of PG-DTPA-Gd-NIR813 were prepared in water at gadolinium concentrations of 0.005, 0.01, 0.02, 0.04, 0.08, and 0.16 mM. Spin lattice (T1) and spin-spin (T2) relaxivities were measured at 4.7 Tesla on 4.7T Bruker Biospec (Bruker Biospin Corp., Billerica, Mass.) using inversion recovery and mutiecho T2-weight pulse sequences. Relaxivities (R1 or R2 in mM^−1s^−1) were obtained from linear least square determination of the slopes of 1/T1 vs [Gd] or 1/T2 vs [Gd] plots.

A short description of series [2]: Fluorescence emission spectra. Format: physicochemical. To be noted: methanol solution; for emission wavelength (maximum): excited at 766 nm. Here is the method: Analytical high-performance liquid chromatography (HPLC) was carried out on an Agilent 1100 system (Wilmington, Del.) equipped with a Vydac peptide and protein analytic C-18 column (Anaheim, Calif.). Sample was eluted with water and acetonitrile containing 0.1% TFA varying from 10% to 80% over 30 min. Fluorescence intensity was measured by Spex Fluorolog spectrofluorimeter (Jobin Yvon Inc, Edison, N.J.).
The fluorescence emission spectra of the synthesized contrast agent was obtained using a Spex Fluorolog spectrofluorimeter (Horiba Yvon Jobin, N.J.).

With `CC(=O)N[C@@H](CC(C)C)C(=O)N[C@H](C(=O)N[C@H](C=O)CCCCN)C(C)C` [CB inhibitor, Ac-LVK-CHO] (Ac-Leu-Val-Lys-aldehyde), the “inhibition of PG-NIR813 degradation by CB” value at cathepsin B is listed as “inhibited by CB inhibitor in a dose-dependent manner”.
As to `O=C([O-])CN(CCN(CC(=O)[O-])CC(=O)O)CCN(CC(=O)[O-])CC(=O)O.[Gd+3]` [DTPA-Gd], the “T1 relaxivity (r1)” value in series [1] was found to be 4.8 mmol⁻¹ s⁻¹.
With `CC1(C)C(=CC=C2CCCC(C=CC3=[N+](CCCCS(=O)(=O)[O-])c4ccccc4C3(C)C)=C2Cl)N(CCCCS(=O)(=O)[O-])c2ccccc21.[Na+]` [IR783], in series [2], the Stokes shift was 32 nm, the excitation wavelength came to 766 nm and the “emission wavelength (maximum)” value is given as 798 nm.
On the same counts, the results for `CC1(C)C(/C=C/C2=C(Sc3ccc(C(=O)NCCCCCN)cc3)C(=C/C=C3/N(CCCCS(=O)(=O)O)c4ccccc4C3(C)C)/CCC2)=[N+](CCCCS(=O)(=O)O)c2ccccc21` [NIR813, IR-783-S-Ph-CONH(CH2)5NH2] are 47 nm, 766 nm and 813 nm.

Source of the values: patent publication US20100290997A1, “Imaging Agents and Methods” (priority 2006, published 2010).
